Results on one molecule are retold here after patent US12083156B1, “Extracts derived from laser-irradiated rhizome of curcuma longa having enhanced antimicrobial activity” (KING FAISAL UNIVERSITY, priority 2023, dated 2024).

A word on the zone of inhibition: it is the size of the clear area around the sample on an inoculated plate. Read a high zone of inhibition as a stronger effect on the plate.

What all share (test): Antimicrobial bioassay, inhibition zone
What all share (format): cell-based

One assay concerns Bacillus sp. The following applies: extracts 5 mg/L, Imipenem 10 μg, mean of nine replicate plates. The method, then: (§1) Each of the mean measurements was obtained from the average of nine replicate plates. The test solution positive control was 10 μg Imipenem. Three Curcuma longa extracts (5 mg/L) were prepared from ethanolic rhizome extracts as well as the control.
A further assay has as its system E. coli. The following applies: Escherichia coli; extracts 5 mg/L; Imipenem 10 μg; mean of nine replicate plates. How it is done: as §1
Another assay relates to MRSA. The following applies: Staphylococcus aureus, extracts 5 mg/L, Imipenem 10 μg, mean of nine replicate plates. The method, then:
as §1

A further assay relates to S. aureus. The following applies: Staphylococcus aureus; extracts 5 mg/L; Imipenem 10 μg; mean of nine replicate plates. The method, then: as §1

With `C[C@@H](O)[C@H]1C(=O)N2C(C(=O)O)=C(SCCN=CN)C[C@H]12` [Imipenem], the zone of inhibition at 10 µg/disc came to 19 mm with Bacillus sp., 20 mm with E. coli, 25 mm in the assay with MRSA and 18 mm in the assay on S. aureus.
